The nature of data set [1]: Acute toxicity in mouse assessed as pathological changes in lung at 10 to 20 mg/kg, ip administered once daily for 20 days by hematoxyin-eosin staining based analysis. The following applies: in vivo, 480 h, dose 10-20 mg/kg, time 20 day. The format is organism-based.
Data set [2] concerns BV-2. Briefly: Antiinflammatory activity in LPS stimulated mouse BV-2 cells assessed as increase in IL-10 expression at 0.5 to 2 uM pretreated with compound for 1 hr followed by LPS stimulation and measured after 24 hrs by qRT-PCR analysis. The format is functional, cell-based. The following applies: dose 0.5-2 µM, time 25.0 hrs. Background: Quantitative PCR measures a nucleic acid by following its amplification.

Data set [3] is described as follows: MRT (0 to 24 hrs) in C57BL/6J mouse at 20 mg/kg, ip measured up to 24 hrs by LC-MS/MS analysis. Conditions: in vivo. The format is ADME, organism-based.
Data set [4] can be described thus: MRT (0 to 24 hrs) in C57BL/6J mouse at 20 mg/kg, iv measured up to 24 hrs by LC-MS/MS analysis. Format: ADME, organism-based. The following applies: in vivo.
The target in data set [5] is Indoleamine 2,3-dioxygenase 1 (Homo sapiens, UniProt P14902). Briefly: Inhibition of IDO1 (unknown origin) assessed as reduction in kynurenine production using L-tryptophan as substrate incubated for 1 hr by absorbance based microplate reader analysis.
Chain of Indoleamine 2,3-dioxygenase 1 (P14902 whole entry): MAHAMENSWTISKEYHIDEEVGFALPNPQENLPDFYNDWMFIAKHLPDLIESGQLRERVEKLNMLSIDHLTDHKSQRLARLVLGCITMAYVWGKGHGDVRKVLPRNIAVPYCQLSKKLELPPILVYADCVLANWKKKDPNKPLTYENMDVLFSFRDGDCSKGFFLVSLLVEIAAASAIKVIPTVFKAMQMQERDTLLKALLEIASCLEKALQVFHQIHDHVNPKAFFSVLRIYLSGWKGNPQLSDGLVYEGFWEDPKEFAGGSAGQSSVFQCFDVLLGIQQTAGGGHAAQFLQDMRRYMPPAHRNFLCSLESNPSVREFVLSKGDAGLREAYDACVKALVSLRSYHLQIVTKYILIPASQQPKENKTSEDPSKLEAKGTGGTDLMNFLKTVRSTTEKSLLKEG
Data set [6] is described as follows: AUC (0 to infinity) in C57BL/6J mouse at 20 mg/kg, ip measured up to 24 hrs by LC-MS/MS analysis. The format is ADME, organism-based. Also on record: dose 20 mg/kg, time < 24 hrs, route ip. Conditions: in vivo.
Data set [7] is described as follows: AUC (0 to infinity) in C57BL/6J mouse at 20 mg/kg, iv measured up to 24 hrs by LC-MS/MS analysis. The following applies: in vivo. The format is ADME, organism-based. Also on record: dose 20 mg/kg, time < 24 hrs, route iv.
In data set [8] the test system is Mus musculus. Briefly: Antiinflammatory activity in LPS induced mouse assessed as reduction in IL-1beta expression in hippocampus at 20 mg/kg, ip pretreated with compound administered once daily for 2 days followed by LPS injection by qPCR analysis. Format: functional, organism-based. Conditions: time 2.0 day.
A short description of data set [9]: Tmax in C57BL/6J mouse at 20 mg/kg, iv measured up to 24 hrs by LC-MS/MS analysis. The format is ADME, organism-based. Conditions: in vivo.
The test system of data set [10] is Mus musculus. Briefly: Downregulation of kynurenine level in serum of LPS induced mouse at 20 mg/kg, ip pretreated with compound administered once daily for 2 days followed by LPS injection by UHPLC-HRMS analysis. Format: functional, organism-based. Conditions: time 2.0 day.
Data set [11] can be described thus: Apparent volume of distribution in C57BL/6J mouse at 20 mg/kg, […] measured up to 24 hrs by LC-MS/MS analysis. The format is ADME, organism-based. The following applies: in vivo, read-out: Vz.
The test system of data set [12] is BV-2. The experiment in a line: Antiinflammatory activity in LPS stimulated mouse BV-2 cells assessed as decrease in IDO1 expression pretreated with compound for 1 hr followed by LPS stimulation and measured after 24 hrs. The format is functional, cell-based. Conditions: dose 0.25-2 µM, time 25.0 hrs, DDE = dose-dependent effect.

The source made the active and inactive calls. No cut-off for these calls is given here.

What is called MRT last is a mean duration of stay, worked out from the concentration-time curve. The term IC50 denotes the concentration at which inhibition is half-maximal. The AUC(0-inf) is the area under the concentration-time curve extrapolated to infinity. A high value points to high exposure. By Tmax is commonly meant the time at which the peak concentration occurs. For the compound `c1ccc2c(c1)[nH]c1c(-c3c[nH]cn3)nccc12`, the Activity entry in data set [1] is “Non-Toxic”; with BV-2 [12] it was “Dde”. Besides, the result with BV-2 [2], in the data set on Mus musculus [8] and in the data set on Mus musculus [10] was Active. Also, the MRT last at 24 h in data set [3] was found to be 1.03 h; in [4], 1.81 h. Further, the IC50 in data set [5] is 3.53 µM. The AUC(0-inf) in [6] was determined as 4460 ng·h/mL; in data set [7] it was 8560 ng·h/mL. For the same compound, the Tmax in [9] came to 15 min. The Vd in [11] was 7.84 L/kg.

These data come from ChEMBL document CHEMBL5137086, “Discovery of 1-(Hetero)aryl-β-carboline Derivatives as IDO1/TDO Dual Inhibitors with Antidepressant Activity” (J Med Chem, 2022).
